# Reference: paper PMC11609934, “Exploration and characterization of the antimalarial activity of cyclopropyl carboxamides that target the mitochondrial protein, cytochrome b” (European Journal of Medicinal Chemistry, 2024)
# Where two headings read alike, the source gives them in different places.
# How the values were obtained:
# [1] = tested on: P. falciparum 3D7 parasites; assay: P. falciparum 3D7 asexual stage LDH assay (72 h); format: cell-based, Plasmodium falciparum; conditions: for EC50: Plasmodium falciparum, 3D7, 72 h, means and SDs, three or more experiments; for fold decrease in Pf 3D7 activity relative to 17: ratio of EC50 to compound 17; for fold loss in Pf 3D7 activity relative to W499 (2): carboxamide variants versus cyclopropyl parent
# Experimental: To establish the SAR, synthesized analogs were assessed against the asexual stage parasite (72 h) using LDH as a proxy for parasite growth inhibition. Cytotoxicity was monitored against the human HepG2 cell line using Cell TitreGlo as a metabolic marker for cell growth.
# P. falciparum 3D7 Asexual Stage LDH Assay. This is a platform assay is routinely undertaken at the Walter and Eliza Hall Institute and details on the protocol has been previously published. Briefly, 10-point dilution series of the compounds were prepared in 384 well assay plates using an Echo555 (Labcyte). Appropriate volumes of 10 mM compound stocks were transferred into the assay plates such that the starting concentration was 1 μM, with a 1 in 3-fold dilution series. All wells were backfilled with DMSO to 40 nL such that this remained constant (0.1 % DMSO). The positive growth control was 0.1 % DMSO and the negative growth control was 100 nM chloroquine. The parasite inoculum (40 μL) was dispensed into plates containing compounds using a Multidrop Combi dispenser (Thermo Scientific). […] Following 72 h growth, plates were sealed with parafilm and frozen at −80 °C overnight. Plates were thawed at room temperature for at least 4 h prior to LDH activity being measured. […] Plates were shaken to ensure mixing and absorbance at 650 nm was measured in an EnVision (PerkinElmer) plate reader after 30 min of incubation at room temperature. […] The equation used is sigmoidal dose response (variable slope), Y = bottom + (top − bottom)/(1 + 10((logEC50 − X) × Hill Slope)).
# [2] = Human HepG2 growth inhibition assay (Cell TitreGlo, 48 h); format: cell-based; conditions: human, HepG2 cells, HepG2 cell growth inhibition over 48 h
# Experimental: To establish the SAR, synthesized analogs were assessed against the asexual stage parasite (72 h) using LDH as a proxy for parasite growth inhibition. Cytotoxicity was monitored against the human HepG2 cell line using Cell TitreGlo as a metabolic marker for cell growth. Cyt b inhibitors typically have high lipophilicity, and so calculated physicochemical properties were determined, while in vitro ADME was also collected on representative analogs to gauge their suitability for efficacy studies in a 4-day P. berghei model.
# Human HepG2 Growth Inhibition Assay. This is a routine assay undertaken at the Walter and Eliza Hall Institute and the method has been previously published. HepG2 cells were cultured in Dulbeccos modified eagles medium (DMEM) supplemented with 10 % fetal calf serum (FCS), in a humidified incubator at 37 °C and 5 % CO2. Assay plates (Greiner #781098, 384 well, white, tissue culture treated) were prepared by transferring appropriate volumes of 10 mM compound stocks using an Echo555 (Labcyte) such that the starting concentration was 50 μM, with a 1:2-fold dilution series. All wells were backfilled with DMSO to […] such that this remained constant (0.5 % DMSO). The positive growth control was 0.5 % DMSO and the negative growth control was 10 μM Bortezomib. HepG2 cells were seeded with 1000 cells in 50 μL DMEM with 10 % FCS into each well of the assay plates using a Multidrop Combi dispenser (Thermo Scientific). Plates were incubated at 37 °C and 5 % CO2 for 48 h. Cytotoxicity was determined using Cell Titer Glo (Promega) and calculated as a percentage using DMSO as the positive growth control and 10 μM Bortezomib as a negative growth control. EC50 values were calculated by Dotmatics 5.3 and Spotfire 7.11.1 software using a nonlinear regression four-parameter fit analysis. The equation used is sigmoidal dose response (variable slope), Y = bottom + (top − bottom)/(1 + 10((logEC50 − X) × Hill Slope)).
# [3] = LDH activity of P. falciparum 3D7 parasites over 72 h, read-out: Pf 3D7 EC50 (SD)
# [4] = read-out: Pf 3D7 EC50 (SD), LDH activity of P. falciparum 3D7 parasites over 72 h
SMILES,"EC50 [1, 3]",CC50 at 48 h [2],fold decrease in Pf 3D7 activity relative to 17 [1],fold loss in Pf 3D7 activity relative to W499 (2) [1],"EC50 [1, 4]"
"O=C(NC1CC1)c1ccc(CNCc2ccccc2)cc1 [Compound 18, 4-((Benzylamino)methyl)-N-cyclopropylbenzamide]",> 10000 nM,–,–,–,–
"CN(Cc1ccccc1)Cc1ccc(C(=O)NC2CC2)cc1 [Compound 19, 4-((Benzyl(methyl)amino)methyl)-N-cyclopropylbenzamide]",2600 nM,> 40000 nM,20 fold,–,–
"CCN(Cc1ccccc1)Cc1ccc(C(=O)NC2CC2)cc1 [Compound 20, 4-((Benzyl(ethyl)amino)methyl)-N-cyclopropylbenzamide]",700 nM,> 40000 nM,4 fold,–,–
"CC(C)(C)N(Cc1ccccc1)Cc1ccc(C(=O)NC2CC2)cc1 [Compound 23, 4-((Benzyl(tert-butyl)amino)methyl)-N-cyclopropylbenzamide]",630 nM,> 40000 nM,–,–,–
"CCC(C)N(Cc1ccccc1)Cc1ccc(C(=O)NC2CC2)cc1 (stereo not drawn) [Compound 24, 4-((Benzyl(sec-butyl)amino)methyl)-N-cyclopropylbenzamide]",210 nM,> 40000 nM,–,–,–
"O=C(NC1CC1)c1ccc(CN(Cc2ccccc2)Cc2ccccc2)cc1 [Compound 27, N-Cyclopropyl-4-((dibenzylamino)methyl)benzamide]",–,> 40000 nM,–,–,–
"O=C(NC1CC1)c1cccc(CN(Cc2ccccc2)C2CC2)c1 [Compound 28, 3-((Benzyl(cyclopropyl)amino)methyl)-N-cyclopropylbenzamide]",5600 nM,> 40000 nM,40 fold,–,–
NC(=O)c1ccc(CN(Cc2ccc(Cl)cc2Cl)C2CC2)cc1 [Compound 29],> 10000 nM,–,–,–,–
CNC(=O)c1ccc(CN(Cc2ccc(Cl)cc2Cl)C2CC2)cc1 [Compound 30],1180 nM,> 40000 nM,–,–,–
"CCNC(=O)c1ccc(CN(Cc2ccc(Cl)cc2Cl)C2CC2)cc1 [Compound 31, 4-((Cyclopropyl(2,4-dichlorobenzyl)amino)methyl)-N-ethylbenzamide]",310 nM,> 40000 nM,–,–,–
"CCCNC(=O)c1ccc(CN(Cc2ccc(Cl)cc2Cl)C2CC2)cc1 [Compound 32, 4-((Cyclopropyl(2,4-dichlorobenzyl)amino)methyl)-N-propylbenzamide]",640 nM,> 40000 nM,–,–,–
CC(C)NC(=O)c1ccc(CN(Cc2ccc(Cl)cc2Cl)C2CC2)cc1 [Compound 33],690 nM,> 40000 nM,–,–,–
"O=C(NCC(F)(F)F)c1ccc(CN(Cc2ccc(Cl)cc2Cl)C2CC2)cc1 [Compound 34, 4-((Cyclopropyl(2,4-dichlorobenzyl)amino)methyl)-N-(2,2,2-trifluoroethyl)benzamide]",> 10000 nM,–,–,–,–
CN(C)CCNC(=O)c1ccc(CN(Cc2ccc(Cl)cc2Cl)C2CC2)cc1 [Compound 35],7600 nM,9300 nM,–,–,–
"NCCNC(=O)c1ccc(CN(Cc2ccc(Cl)cc2Cl)C2CC2)cc1 [Compound 36, 2-(4-((Cyclopropyl(2,4-dichlorobenzyl)amino)methyl)benzamido)ethan-1-aminium 2,2,2-trifluoroacetate]",> 10000 nM,–,–,–,–
"O=C(NCCO)c1ccc(CN(Cc2ccc(Cl)cc2Cl)C2CC2)cc1 [Compound 37, 4-((Cyclopropyl(2,4-dichlorobenzyl)amino)methyl)-N-(2-hydroxyethyl)benzamide]",2400 nM,> 40000 nM,–,approximately 25 fold,–
O=C(NC1CCC1)c1ccc(CN(Cc2ccc(Cl)cc2Cl)C2CC2)cc1 [Compound 38],480 nM,> 40000 nM,–,4 fold,–
O=C(NC1CCCC1)c1ccc(CN(Cc2ccc(Cl)cc2Cl)C2CC2)cc1 [Compound 39],–,> 40000 nM,–,12 fold,1200 nM
O=C(Nc1ccccc1)c1ccc(CN(Cc2ccc(Cl)cc2Cl)C2CC2)cc1 [Compound 40],–,> 40000 nM,–,–,–
O=C(NC1CC1)c1ccc(CN(Cc2ccccc2F)C2CC2)cc1 [Compound 42],250 nM,> 40000 nM,–,–,–

SMILES,"EC50 [1, 3]",CC50 at 48 h [2],fold decrease in Pf 3D7 activity relative to 17 [1],fold loss in Pf 3D7 activity relative to W499 (2) [1],"EC50 [1, 4]"
O=C(NC1CC1)c1ccc(CN(Cc2cccc(F)c2)C2CC2)cc1 [Compound 43],240 nM,> 40000 nM,–,–,–
O=C(NC1CC1)c1ccc(CN(Cc2ccc(F)cc2)C2CC2)cc1 [Compound 44],220 nM,> 40000 nM,–,–,–
"O=C(NC1CC1)c1ccc(CN(Cc2ccccc2Cl)C2CC2)cc1 [Compound 45, 4-(((2-Chlorobenzyl) (cyclopropyl)amino)methyl)-N-cyclopropylbenzamide]",290 nM,> 40000 nM,–,–,–
"O=C(NC1CC1)c1ccc(CN(Cc2cccc(Cl)c2)C2CC2)cc1 [Compound 46, 4-(((3-Chlorobenzyl) (cyclopropyl)amino)methyl)-N-cyclopropylbenzamide]",340 nM,> 40000 nM,–,–,–
"O=C(NC1CC1)c1ccc(CN(Cc2ccc(Cl)cc2)C2CC2)cc1 [Compound 47, 4-(((4-Chlorobenzyl) (cyclopropyl)amino)methyl)-N-cyclopropylbenzamide]",210 nM,> 40000 nM,–,–,–
Cc1ccccc1CN(Cc1ccc(C(=O)NC2CC2)cc1)C1CC1 [Compound 48],200 nM,> 40000 nM,–,–,–
O=C(NC1CC1)c1ccc(CN(Cc2ccccc2C(F)(F)F)C2CC2)cc1 [Compound 49],220 nM,> 40000 nM,–,–,–
Cc1cccc(CN(Cc2ccc(C(=O)NC3CC3)cc2)C2CC2)c1 [Compound 50],170 nM,> 40000 nM,–,–,–
Cc1ccc(CN(Cc2ccc(C(=O)NC3CC3)cc2)C2CC2)cc1 [Compound 51],150 nM,> 40000 nM,–,–,–
O=C(NC1CC1)c1ccc(CN(Cc2cccc(C(F)(F)F)c2)C2CC2)cc1 [Compound 52],160 nM,> 40000 nM,–,–,–
O=C(NC1CC1)c1ccc(CN(Cc2ccc(C(F)(F)F)cc2)C2CC2)cc1 [Compound 53],110 nM,> 40000 nM,–,–,–
"CC(=O)Nc1cccc(CN(Cc2ccc(C(=O)NC3CC3)cc2)C2CC2)c1 [Compound 66, 4-(((3-Acetamidobenzyl) (cyclopropyl)amino)methyl)-N-cyclopropylbenzamide]",> 10000 nM,–,–,–,–
"CC(=O)Nc1ccc(CN(Cc2ccc(C(=O)NC3CC3)cc2)C2CC2)cc1 [Compound 67, 4-(((4-Acetamidobenzyl) (cyclopropyl)amino)methyl)-N-cyclopropylbenzamide]",> 10000 nM,–,–,–,–
O=C(NC1CC1)c1ccc(CN(Cc2cccnc2)C2CC2)cc1 [Compound 86],> 10000 nM,–,–,–,–
"O=C(NC1CC1)c1ccc(CNC2CC2)cc1 [Compound 88, N-cyclopropyl-4-((cyclopropylamino)methyl)benzamide]",> 10000 nM,–,–,–,–
CN(Cc1ccc(C(=O)NC2CC2)cc1)C1CC1 [Compound 89],> 10000 nM,–,–,–,–
CC(C)CN(Cc1ccc(C(=O)NC2CC2)cc1)C1CC1 [Compound 92],–,–,approximately 4 fold,–,540 nM
"O=C(NC1CC1)c1ccc(CN(C(=O)c2ccccc2)C2CC2)cc1 [Compound 99, N-Cyclopropyl-N-(4-(cyclopropylcarbamoyl)benzyl)benzamide]",> 10000 nM,–,–,–,–
"O=C(NC1CC1)c1ccc(C(=O)N(Cc2ccccc2)C2CC2)cc1 [Compound 100, N [4]-Benzyl-N^1,N [4]-dicyclopropyl-terephthalamide]",> 10000 nM,–,–,–,–
"O=C(NC1CC1)c1ncc(CN(Cc2ccccc2)C2CC2)s1 [Compound 106, 5-((Benzyl(cyclopropyl)amino)methyl)-N-cyclopropylthiazole-2-carboxamide]",> 10000 nM,–,–,–,–
